Columns and labels:
[1] = target: T1, Tyrosine-protein kinase receptor UFO (Homo sapiens, UniProt P30530); experiment: Inhibition of recombinant AXL (unknown origin) using poly (Glu,Tyr) 4:1 as substrate incubated for 60 mins in presence of ATP by ELISA
T1 sequence (P30530 whole entry): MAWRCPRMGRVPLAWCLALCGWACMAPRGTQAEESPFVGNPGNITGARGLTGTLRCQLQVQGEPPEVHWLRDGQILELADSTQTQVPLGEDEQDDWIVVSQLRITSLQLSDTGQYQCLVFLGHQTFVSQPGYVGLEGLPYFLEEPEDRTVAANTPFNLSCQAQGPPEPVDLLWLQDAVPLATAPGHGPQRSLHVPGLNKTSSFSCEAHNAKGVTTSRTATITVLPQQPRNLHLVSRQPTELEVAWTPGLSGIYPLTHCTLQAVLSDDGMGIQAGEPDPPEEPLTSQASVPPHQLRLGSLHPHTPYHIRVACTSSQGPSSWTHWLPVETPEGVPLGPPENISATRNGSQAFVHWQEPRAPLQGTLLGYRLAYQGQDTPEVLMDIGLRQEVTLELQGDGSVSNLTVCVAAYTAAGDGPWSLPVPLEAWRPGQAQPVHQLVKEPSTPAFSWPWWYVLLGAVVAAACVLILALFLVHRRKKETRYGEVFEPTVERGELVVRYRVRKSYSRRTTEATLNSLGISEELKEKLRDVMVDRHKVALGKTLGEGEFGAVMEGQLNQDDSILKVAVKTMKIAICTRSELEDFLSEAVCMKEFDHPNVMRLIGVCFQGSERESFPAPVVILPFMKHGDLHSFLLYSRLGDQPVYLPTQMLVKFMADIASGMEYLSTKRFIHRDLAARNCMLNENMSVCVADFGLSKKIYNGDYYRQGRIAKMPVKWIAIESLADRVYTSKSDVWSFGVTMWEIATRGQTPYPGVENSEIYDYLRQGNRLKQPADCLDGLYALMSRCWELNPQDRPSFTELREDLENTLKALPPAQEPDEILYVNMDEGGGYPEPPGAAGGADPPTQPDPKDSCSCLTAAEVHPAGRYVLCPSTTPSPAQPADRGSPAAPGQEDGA

BaF3 = experiment: Antiproliferative activity against mouse BaF3 cells transfected with TEL-AXL assessed as inhibition of cell growth incubated for 72 hrs; assay type: functional, cell-based; settings: BaF3, 72 h
[2] = target: T1, Tyrosine-protein kinase receptor UFO; experiment: Binding affinity to AXL (unknown origin) assessed as dissociation constant by competition binding assay
[3] = target: Epithelial discoidin domain-containing receptor 1 (Homo sapiens, UniProt Q08345); experiment: Binding affinity to DDR1 (unknown origin) assessed as dissociation constant by competition binding assay
Sequence of Epithelial discoidin domain-containing receptor 1 (Q08345 whole entry, the tested form may be a part): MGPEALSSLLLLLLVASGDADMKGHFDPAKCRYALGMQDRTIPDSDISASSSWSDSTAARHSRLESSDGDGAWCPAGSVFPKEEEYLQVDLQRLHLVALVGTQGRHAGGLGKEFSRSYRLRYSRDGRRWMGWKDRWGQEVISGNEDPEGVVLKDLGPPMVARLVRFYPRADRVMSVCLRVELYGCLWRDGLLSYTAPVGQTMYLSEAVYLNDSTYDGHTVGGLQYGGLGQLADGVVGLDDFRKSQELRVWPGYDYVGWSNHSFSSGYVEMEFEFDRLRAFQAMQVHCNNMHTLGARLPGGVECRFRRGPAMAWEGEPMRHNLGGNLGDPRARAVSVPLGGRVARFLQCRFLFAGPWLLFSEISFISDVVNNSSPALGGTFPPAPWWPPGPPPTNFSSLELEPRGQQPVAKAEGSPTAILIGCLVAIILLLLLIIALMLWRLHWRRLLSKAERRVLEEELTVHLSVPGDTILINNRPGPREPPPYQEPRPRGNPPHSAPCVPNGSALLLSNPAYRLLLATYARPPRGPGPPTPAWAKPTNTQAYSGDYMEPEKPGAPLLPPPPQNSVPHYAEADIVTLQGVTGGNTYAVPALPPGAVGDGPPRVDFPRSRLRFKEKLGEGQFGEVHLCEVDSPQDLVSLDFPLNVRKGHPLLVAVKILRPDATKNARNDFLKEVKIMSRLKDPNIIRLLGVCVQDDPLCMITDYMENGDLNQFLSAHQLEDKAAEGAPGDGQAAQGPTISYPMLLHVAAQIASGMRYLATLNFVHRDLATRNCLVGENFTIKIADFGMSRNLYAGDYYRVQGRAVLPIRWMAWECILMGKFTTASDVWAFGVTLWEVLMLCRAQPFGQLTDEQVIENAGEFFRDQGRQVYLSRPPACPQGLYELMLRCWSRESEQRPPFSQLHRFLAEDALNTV

Ephrin type-B receptor 6 = Ephrin type-B receptor 6 (Homo sapiens, UniProt O15197); experiment: Binding affinity to EPHB6 (unknown origin) assessed as dissociation constant by competition binding assay
[4] = target: Receptor-type tyrosine-protein kinase FLT3 (Homo sapiens, UniProt P36888); experiment: Binding affinity to FLT3 (unknown origin) assessed as dissociation constant by competition binding assay
Sequence of Receptor-type tyrosine-protein kinase FLT3 (P36888 whole entry): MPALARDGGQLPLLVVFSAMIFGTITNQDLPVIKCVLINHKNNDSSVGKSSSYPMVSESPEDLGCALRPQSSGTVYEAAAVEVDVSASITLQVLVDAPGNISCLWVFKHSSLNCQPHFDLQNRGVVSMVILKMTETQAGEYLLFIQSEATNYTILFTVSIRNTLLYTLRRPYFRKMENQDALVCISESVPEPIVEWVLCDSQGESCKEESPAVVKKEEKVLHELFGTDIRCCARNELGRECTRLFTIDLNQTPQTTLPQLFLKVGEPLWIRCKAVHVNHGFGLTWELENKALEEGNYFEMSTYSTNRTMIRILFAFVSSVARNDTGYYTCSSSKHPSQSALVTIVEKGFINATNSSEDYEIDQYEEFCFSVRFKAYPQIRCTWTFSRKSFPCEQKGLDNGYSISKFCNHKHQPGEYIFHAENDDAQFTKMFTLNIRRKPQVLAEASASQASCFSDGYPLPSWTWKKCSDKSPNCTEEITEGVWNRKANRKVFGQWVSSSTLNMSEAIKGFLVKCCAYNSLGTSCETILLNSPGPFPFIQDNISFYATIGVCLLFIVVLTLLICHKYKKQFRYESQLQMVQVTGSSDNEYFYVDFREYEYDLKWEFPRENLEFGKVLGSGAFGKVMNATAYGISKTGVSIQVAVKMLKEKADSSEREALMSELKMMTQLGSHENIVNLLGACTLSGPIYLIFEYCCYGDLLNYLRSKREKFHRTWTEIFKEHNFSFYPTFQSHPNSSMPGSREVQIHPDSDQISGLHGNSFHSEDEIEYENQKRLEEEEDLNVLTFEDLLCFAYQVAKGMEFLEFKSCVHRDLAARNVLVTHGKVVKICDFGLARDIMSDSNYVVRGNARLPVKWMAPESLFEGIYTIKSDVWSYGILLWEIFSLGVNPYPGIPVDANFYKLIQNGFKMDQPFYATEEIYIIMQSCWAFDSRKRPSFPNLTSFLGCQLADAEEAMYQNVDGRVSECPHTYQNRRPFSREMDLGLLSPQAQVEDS

[5] = target: Serine/threonine-protein kinase 10 (Homo sapiens, UniProt O94804); experiment: Binding affinity to LOK (unknown origin) assessed as dissociation constant by competition binding assay
Sequence of Serine/threonine-protein kinase 10 (O94804 whole entry): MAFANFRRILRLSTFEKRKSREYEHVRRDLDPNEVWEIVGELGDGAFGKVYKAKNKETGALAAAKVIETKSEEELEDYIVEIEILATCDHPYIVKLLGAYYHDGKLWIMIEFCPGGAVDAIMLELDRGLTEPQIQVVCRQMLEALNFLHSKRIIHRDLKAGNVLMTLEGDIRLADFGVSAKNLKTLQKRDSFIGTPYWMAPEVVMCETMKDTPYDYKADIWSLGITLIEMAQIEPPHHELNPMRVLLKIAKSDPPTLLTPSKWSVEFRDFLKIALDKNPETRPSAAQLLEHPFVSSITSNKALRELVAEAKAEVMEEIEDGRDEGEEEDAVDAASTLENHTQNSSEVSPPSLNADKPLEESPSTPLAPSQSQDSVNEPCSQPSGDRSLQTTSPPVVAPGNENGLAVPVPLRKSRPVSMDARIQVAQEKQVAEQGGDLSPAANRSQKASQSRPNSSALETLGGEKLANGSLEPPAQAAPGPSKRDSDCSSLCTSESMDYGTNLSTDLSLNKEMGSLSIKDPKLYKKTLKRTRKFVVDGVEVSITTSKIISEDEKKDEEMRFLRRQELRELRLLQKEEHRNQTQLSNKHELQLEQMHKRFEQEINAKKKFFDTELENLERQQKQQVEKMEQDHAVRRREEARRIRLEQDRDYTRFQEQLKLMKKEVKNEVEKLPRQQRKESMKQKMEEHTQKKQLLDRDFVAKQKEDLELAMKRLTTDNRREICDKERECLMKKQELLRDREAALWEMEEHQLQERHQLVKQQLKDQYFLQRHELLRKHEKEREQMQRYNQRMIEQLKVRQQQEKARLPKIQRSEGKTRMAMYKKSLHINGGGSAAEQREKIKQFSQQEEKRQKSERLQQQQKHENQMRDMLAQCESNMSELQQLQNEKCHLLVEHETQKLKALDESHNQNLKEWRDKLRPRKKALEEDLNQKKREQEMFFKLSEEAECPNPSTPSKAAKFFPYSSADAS

[6] = target: Hepatocyte growth factor receptor (Homo sapiens, UniProt P08581); experiment: Binding affinity to MET (unknown origin) assessed as dissociation constant by competition binding assay
[7] = target: Macrophage-stimulating protein receptor (Homo sapiens, UniProt Q04912); experiment: Binding affinity to […] (unknown origin) assessed as dissociation constant by competition binding assay
[8] = target: Platelet-derived growth factor receptor beta (Homo sapiens, UniProt P09619); experiment: Binding affinity to PDGFRB (unknown origin) assessed as dissociation constant by competition binding assay
[9] = target: Mast/stem cell growth factor receptor Kit (Homo sapiens, UniProt P10721); experiment: Inhibition of KIT (unknown origin)
Sequence of Mast/stem cell growth factor receptor Kit (P10721 whole entry): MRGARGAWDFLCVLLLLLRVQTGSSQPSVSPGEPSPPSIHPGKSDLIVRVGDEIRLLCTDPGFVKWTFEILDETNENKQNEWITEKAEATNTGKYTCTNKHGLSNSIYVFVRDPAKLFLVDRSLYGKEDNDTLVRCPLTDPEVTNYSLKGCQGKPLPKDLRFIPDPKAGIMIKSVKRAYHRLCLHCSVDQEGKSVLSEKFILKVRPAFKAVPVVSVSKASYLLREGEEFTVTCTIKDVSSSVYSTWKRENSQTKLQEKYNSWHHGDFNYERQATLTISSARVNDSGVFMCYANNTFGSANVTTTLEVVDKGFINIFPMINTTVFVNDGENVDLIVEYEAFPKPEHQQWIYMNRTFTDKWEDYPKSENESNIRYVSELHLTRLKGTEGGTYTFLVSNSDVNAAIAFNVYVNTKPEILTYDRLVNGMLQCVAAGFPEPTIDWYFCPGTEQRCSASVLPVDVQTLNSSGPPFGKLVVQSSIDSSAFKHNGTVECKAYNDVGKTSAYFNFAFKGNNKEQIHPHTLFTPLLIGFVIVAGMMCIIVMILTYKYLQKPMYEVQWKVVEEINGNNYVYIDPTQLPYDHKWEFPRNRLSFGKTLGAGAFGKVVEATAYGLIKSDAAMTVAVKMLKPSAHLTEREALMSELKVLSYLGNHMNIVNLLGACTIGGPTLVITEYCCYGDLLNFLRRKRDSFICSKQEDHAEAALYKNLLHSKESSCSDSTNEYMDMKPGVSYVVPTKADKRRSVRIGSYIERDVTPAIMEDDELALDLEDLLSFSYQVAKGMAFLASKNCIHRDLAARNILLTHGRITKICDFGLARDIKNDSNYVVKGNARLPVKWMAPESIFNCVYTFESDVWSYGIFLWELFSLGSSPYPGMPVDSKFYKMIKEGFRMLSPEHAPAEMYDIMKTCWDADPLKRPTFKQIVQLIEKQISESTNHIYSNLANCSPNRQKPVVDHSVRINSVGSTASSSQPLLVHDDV

[10] = target: Tyrosine-protein kinase receptor UFO (Mus musculus) (UniProt Q00993); experiment: Inhibition of AXL phosphorylation at Tyr702 residue in mouse 4T1 cells measured after 6 hrs by Western blot analysis; assay type: cell-based; settings: dose 0.8-500 nM, DDE = dose-dependent effect
Sequence of Tyrosine-protein kinase receptor UFO (Mus musculus) (Q00993 whole entry): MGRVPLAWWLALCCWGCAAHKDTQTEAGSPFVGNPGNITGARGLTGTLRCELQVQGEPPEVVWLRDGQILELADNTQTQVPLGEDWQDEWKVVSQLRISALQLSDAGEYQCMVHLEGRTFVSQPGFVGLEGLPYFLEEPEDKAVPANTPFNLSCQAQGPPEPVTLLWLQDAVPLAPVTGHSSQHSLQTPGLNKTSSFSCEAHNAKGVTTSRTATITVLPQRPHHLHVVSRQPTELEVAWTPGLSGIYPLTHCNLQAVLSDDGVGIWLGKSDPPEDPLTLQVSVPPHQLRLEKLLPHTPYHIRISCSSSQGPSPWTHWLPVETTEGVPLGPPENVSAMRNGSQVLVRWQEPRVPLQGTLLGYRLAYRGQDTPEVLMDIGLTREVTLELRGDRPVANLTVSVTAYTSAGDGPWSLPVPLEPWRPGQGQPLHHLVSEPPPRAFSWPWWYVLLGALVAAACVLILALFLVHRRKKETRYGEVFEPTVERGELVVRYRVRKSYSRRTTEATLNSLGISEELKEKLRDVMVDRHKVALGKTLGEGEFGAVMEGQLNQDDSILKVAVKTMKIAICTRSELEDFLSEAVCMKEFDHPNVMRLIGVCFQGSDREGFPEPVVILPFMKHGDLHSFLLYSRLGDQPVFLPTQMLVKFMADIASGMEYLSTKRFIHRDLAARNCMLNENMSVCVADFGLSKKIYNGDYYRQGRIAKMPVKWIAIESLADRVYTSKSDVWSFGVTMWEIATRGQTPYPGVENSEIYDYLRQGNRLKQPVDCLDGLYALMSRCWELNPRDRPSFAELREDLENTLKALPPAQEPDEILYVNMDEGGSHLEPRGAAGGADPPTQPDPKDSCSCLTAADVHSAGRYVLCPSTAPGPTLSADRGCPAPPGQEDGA

MDA-MB-231 = experiment: Inhibition of TGF-beta induced epithelial mesenchymal transition process in human metastatic MDA-MB-231 cells assessed as restoration of E-cadherin expression incubated for 3 days by Western blot analysis; assay type: functional, cell-based; settings: dose 0.11-3 µM, time 3.0 day, DDE = dose-dependent effect
[11] = Inhibition of TGF-beta induced cell invasion in human MDA-MB-231 cells at 0.33 uM incubated for 24 hrs by crystal violet staining based transwell assay relative to control; assay type: functional
[12] = Cmax in Sprague-Dawley rat at 25 mg/kg, po measured for 96 hrs by LC-MS analysis; assay type: ADME, organism-based; design: dose 25 mg/kg, time 96 hrs, route po; settings: in vivo
[13] = AUClast in Sprague-Dawley rat at 5 mg/kg, iv measured for 96 hrs by LC-MS analysis; assay type: ADME, organism-based; design: time 96 hrs, dose 5 mg/kg, route iv; settings: in vivo
[14] = Observed AUCinfinity in Sprague-Dawley rat at 5 mg/kg, iv measured for 96 hrs by LC-MS analysis; assay type: ADME, organism-based; design: dose 5 mg/kg, time 96 hrs, route iv; settings: in vivo
[15] = Observed MRTinfinity in Sprague-Dawley rat at 5 mg/kg, iv measured for 96 hrs by LC-MS analysis; assay type: ADME, organism-based; settings: in vivo
4T1 [16] = experiment: Antitumor activity against metastatic mouse 4T1 cells implanted in BALB/c mouse assessed as reduction in size of liver metastases administered orally once daily for 14 consecutive days by H & E staining based microscopic analysis; assay type: functional; settings: dose 50-100 mg/kg, route po, time 14.0 day, DDE = dose-dependent effect
4T1 [17] = experiment: Antitumor activity against metastatic mouse 4T1 cells implanted in BALB/c mouse assessed as reduction in number of liver metastases at 50 mg/kg, po qd administered for 14 consecutive days by H & E staining based microscopic analysis (reference value: 24.7 +/- 6.7); assay type: functional; settings: time 14 day
[18] = Toxicity in BALB/c mouse implanted with mouse 4T1 cells assessed as splenomegaly at 50 to 100 mg/kg, po qd administered for 14 consecutive days; assay type: organism-based; settings: in vivo, 336 h, dose 50-100 mg/kg, time 14 day

In the case of `COc1cc2c(Oc3ccc(Nc4nn(C)cc4C(=O)NC4CCCCC4)cc3F)ccnc2cc1OCCCN1CCOCC1`, the IC50 [1] is reported as 1.6 nM, the IC50 (BaF3) is reported as 4.7 nM and the Kd [2] is reported as 0.26 nM. The Kd [3] was > 1000 nM, the Kd (Ephrin type-B receptor 6) was > 1000 nM and the Kd [4] was 2.5 nM. The Kd [5] was 880 nM, the Kd [6] was > 1000 nM and the Kd [7] was > 1000 nM. The Kd [8] was 2.3 nM, the IC50 [9] was 151 nM and the inhibition [10] was “Dde”. The inhibition (MDA-MB-231) was “Dde”, the inhibition at 0.33 µM [11] was 34.8% and the Cmax [12] was 888 ng/mL. The AUC(0-t) at 96 h [13] was 11700 ng·h/mL, the AUC(0-inf) [14] was 11700 ng·h/mL and the MRT inf [15] was 1.82 h. The Activity (4T1 [16]) was “Dde”, the Activity (4T1 [17]) was 3.2 and the Activity [18] was “Non-Toxic”.

From ChEMBL document CHEMBL5096241, “Discovery of 3-Aminopyrazole Derivatives as New Potent and Orally Bioavailable AXL Inhibitors” (J Med Chem, 2022)
